The record followed here is ChEMBL document CHEMBL5465560, “Selectivity Literature for EUbOPEN Chemogenomic Library” (2024).

Experiment [1] concerns the target Protein kinase C eta type (Homo sapiens) (UniProt P24723). Briefly: Selectivity interaction (Kinase panel (Z-LYTE Assay)) EUB0001632a PRKCH. The following applies: at 10 µM.
In experiment [2] the target is Tyrosine-protein kinase HCK (Homo sapiens) (UniProt P08631). The following applies: at 10 µM.
The target of experiment [3] is Mitogen-activated protein kinase kinase kinase 20 (Homo sapiens) (UniProt Q9NYL2). The experiment is described as follows: Selectivity interaction (ActivX KiNativ screen (ex vivo kinase selectivity in human PBMCs)) EUB0001619a MAP3K20. Format: cell-based. The conditions noted are these: PBMC, at 1 µM.
The target of experiment [4] is T1, Phosphatidylinositol 5-phosphate 4-kinase type-2 beta (Homo sapiens) (UniProt P78356).
T1 sequence (whole entry): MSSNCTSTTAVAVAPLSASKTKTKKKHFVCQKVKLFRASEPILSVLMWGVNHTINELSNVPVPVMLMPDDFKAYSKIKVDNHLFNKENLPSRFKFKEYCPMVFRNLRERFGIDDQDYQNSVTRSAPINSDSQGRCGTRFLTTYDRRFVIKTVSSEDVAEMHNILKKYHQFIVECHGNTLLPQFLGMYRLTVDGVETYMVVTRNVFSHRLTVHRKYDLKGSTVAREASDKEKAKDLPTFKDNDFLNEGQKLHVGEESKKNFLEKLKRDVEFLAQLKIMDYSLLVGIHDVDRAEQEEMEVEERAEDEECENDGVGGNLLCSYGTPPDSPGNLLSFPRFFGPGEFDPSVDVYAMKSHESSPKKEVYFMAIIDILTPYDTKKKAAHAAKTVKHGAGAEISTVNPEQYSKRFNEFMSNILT
Briefly: Selectivity interaction (ActivX KiNativ screen (kinase selectivity in THP-1 cell lysates)) EUB0000639a PIP4K2B. The class given is subcellular. The conditions noted are these: lysate.

Experiment [5] deals with T2, Cyclin-dependent kinase 11A (Homo sapiens) (UniProt Q9UQ88).
T2 sequence (whole entry): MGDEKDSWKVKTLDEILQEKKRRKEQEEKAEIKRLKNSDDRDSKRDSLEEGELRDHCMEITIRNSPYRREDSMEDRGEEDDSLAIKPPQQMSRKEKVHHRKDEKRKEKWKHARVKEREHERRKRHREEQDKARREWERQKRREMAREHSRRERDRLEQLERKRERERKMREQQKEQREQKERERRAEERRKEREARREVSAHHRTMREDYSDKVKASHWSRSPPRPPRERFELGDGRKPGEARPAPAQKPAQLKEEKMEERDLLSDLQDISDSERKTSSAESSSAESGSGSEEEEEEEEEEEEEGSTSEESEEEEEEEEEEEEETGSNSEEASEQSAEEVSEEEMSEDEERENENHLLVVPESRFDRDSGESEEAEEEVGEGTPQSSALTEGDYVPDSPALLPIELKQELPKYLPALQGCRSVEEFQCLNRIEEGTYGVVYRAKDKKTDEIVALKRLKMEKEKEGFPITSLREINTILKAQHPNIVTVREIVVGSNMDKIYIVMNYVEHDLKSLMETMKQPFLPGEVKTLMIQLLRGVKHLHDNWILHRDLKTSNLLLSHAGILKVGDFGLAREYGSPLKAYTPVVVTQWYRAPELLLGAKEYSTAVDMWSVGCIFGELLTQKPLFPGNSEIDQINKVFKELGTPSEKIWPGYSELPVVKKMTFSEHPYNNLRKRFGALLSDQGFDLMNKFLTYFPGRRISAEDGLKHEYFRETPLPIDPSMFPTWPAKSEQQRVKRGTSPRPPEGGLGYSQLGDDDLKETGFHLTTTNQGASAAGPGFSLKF
The experiment is described as follows: Selectivity interaction (KinomeScan (DiscoverX)) EUB0001049a CDK11A. The following applies: at 1 µM.

For experiment [6], the target named is T3, Mitogen-activated protein kinase kinase kinase 19 (Homo sapiens) (UniProt Q56UN5).
T3 sequence (whole entry): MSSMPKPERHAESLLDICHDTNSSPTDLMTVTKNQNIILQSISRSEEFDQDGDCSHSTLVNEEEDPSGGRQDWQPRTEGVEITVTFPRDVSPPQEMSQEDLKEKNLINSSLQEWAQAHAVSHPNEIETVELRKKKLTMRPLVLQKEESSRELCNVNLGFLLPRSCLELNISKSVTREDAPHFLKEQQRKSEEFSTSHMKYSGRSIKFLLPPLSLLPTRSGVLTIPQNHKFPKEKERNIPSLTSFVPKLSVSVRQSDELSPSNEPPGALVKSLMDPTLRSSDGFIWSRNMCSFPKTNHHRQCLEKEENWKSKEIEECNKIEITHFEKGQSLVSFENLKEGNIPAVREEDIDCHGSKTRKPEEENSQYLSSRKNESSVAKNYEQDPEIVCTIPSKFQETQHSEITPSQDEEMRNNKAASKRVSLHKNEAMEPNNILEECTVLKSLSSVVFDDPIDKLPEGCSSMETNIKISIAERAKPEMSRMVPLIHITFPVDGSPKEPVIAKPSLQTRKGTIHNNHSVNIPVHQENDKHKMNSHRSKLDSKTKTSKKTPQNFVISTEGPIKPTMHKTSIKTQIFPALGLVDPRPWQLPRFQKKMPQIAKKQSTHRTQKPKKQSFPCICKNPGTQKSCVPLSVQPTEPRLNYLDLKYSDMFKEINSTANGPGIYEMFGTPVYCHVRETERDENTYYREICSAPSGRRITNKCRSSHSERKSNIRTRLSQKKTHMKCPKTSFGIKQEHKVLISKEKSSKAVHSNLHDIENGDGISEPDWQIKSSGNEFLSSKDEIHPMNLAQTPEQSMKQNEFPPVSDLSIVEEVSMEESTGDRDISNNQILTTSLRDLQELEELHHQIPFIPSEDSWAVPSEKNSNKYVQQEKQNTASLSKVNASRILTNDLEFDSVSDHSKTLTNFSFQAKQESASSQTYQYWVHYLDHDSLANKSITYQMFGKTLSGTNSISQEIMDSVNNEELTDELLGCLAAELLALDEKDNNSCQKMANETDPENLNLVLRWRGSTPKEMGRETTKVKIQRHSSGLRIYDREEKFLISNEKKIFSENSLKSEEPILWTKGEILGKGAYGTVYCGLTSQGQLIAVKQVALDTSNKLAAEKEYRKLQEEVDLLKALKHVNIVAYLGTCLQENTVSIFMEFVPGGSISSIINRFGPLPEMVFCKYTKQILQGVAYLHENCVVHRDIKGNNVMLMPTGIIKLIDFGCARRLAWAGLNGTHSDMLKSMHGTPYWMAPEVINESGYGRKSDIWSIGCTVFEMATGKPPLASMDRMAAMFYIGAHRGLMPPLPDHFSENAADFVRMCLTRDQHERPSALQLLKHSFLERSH
Briefly: Selectivity interaction (KinomeScan (DiscoverX)) EUB0000695a MAP3K19. The following applies: at 100 nM.

Experiment [7] has as its target Serine/threonine-protein kinase PAK 6 (Homo sapiens) (UniProt Q9NQU5). Briefly: Selectivity interaction (KinomeScan (DiscoverX)) EUB0000092b PAK6. The conditions noted are these: at 10 µM.

Chain of Mitogen-activated protein kinase kinase kinase 20 (Homo sapiens) (Q9NYL2 2-800 limits assumed): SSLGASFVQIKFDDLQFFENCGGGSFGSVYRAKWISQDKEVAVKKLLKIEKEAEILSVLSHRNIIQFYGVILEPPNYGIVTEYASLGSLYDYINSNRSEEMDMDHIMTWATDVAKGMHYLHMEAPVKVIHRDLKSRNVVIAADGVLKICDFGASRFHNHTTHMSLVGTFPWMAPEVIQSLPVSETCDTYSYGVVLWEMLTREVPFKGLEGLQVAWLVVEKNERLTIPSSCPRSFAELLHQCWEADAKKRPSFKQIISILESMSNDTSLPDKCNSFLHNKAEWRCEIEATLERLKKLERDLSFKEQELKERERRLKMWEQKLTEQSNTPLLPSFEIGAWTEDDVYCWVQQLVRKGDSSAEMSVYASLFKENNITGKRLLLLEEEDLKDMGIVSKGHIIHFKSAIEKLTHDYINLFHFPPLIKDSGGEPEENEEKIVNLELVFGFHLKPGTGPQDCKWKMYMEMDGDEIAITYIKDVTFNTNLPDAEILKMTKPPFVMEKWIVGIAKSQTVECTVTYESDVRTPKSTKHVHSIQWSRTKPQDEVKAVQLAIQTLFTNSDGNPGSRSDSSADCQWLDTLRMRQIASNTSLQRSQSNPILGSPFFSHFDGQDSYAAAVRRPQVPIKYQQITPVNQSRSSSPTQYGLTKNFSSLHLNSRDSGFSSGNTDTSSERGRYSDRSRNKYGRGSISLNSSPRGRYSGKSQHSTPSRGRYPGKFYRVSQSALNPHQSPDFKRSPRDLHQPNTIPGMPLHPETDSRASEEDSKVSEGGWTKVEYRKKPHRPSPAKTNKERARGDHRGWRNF
Chain of Tyrosine-protein kinase HCK (Homo sapiens) (P08631 2-526 limits assumed): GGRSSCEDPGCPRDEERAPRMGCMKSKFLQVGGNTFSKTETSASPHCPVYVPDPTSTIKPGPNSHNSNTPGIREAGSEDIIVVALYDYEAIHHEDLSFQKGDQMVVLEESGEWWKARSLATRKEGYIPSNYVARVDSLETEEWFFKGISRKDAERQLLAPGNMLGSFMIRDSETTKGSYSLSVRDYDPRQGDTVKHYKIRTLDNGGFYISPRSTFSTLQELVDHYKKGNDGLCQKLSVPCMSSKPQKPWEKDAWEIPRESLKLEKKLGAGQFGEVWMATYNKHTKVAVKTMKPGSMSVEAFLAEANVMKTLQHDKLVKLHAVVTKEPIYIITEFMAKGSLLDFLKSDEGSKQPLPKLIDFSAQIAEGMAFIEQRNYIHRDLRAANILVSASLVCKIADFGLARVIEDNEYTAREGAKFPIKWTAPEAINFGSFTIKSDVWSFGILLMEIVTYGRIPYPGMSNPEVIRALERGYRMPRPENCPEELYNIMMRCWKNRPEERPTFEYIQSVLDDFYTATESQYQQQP
Chain of Serine/threonine-protein kinase PAK 6 (Homo sapiens) (Q9NQU5 whole entry, looked up): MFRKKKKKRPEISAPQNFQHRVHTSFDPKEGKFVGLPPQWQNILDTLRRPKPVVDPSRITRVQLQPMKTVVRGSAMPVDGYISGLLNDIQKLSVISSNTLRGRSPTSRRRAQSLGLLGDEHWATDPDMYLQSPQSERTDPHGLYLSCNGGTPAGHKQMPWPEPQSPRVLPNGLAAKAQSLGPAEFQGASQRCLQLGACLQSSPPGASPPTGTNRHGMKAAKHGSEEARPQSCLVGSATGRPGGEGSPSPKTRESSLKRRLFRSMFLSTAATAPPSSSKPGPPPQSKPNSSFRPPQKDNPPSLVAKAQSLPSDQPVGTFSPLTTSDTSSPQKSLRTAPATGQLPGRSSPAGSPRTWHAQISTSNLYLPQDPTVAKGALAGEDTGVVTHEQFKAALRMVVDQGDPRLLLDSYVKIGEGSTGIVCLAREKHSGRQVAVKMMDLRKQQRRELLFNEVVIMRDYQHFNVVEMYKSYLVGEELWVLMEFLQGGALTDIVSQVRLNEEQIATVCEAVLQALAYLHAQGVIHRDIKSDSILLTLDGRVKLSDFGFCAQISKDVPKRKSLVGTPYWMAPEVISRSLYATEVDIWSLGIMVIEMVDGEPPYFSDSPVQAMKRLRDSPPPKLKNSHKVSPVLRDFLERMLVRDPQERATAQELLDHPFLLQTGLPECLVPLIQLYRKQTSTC
Chain of Protein kinase C eta type (Homo sapiens) (P24723 whole entry): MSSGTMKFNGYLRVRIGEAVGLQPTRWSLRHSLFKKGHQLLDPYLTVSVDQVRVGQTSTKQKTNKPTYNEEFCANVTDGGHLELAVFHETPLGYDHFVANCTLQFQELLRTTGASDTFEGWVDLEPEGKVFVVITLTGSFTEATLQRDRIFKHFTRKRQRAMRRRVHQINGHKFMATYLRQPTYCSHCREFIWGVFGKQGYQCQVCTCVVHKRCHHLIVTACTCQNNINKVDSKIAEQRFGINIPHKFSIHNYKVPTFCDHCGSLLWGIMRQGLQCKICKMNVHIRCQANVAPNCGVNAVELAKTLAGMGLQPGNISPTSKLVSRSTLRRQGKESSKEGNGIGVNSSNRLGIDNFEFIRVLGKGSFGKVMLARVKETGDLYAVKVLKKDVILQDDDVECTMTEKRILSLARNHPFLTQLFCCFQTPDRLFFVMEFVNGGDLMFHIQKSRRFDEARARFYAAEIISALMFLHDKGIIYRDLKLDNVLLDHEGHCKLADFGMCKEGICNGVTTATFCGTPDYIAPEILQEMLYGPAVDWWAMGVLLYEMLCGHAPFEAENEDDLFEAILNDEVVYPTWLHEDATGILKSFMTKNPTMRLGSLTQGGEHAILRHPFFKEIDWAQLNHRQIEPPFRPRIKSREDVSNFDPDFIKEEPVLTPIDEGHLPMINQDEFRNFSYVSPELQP

Take `Cn1cc(-n2cnc3c(NCc4nc5cc(Cl)c(Cl)cc5[nH]4)nc(N4CCOCC4)nc32)cn1`: the % of control in experiment [1] amounted to 19.3%.

In turn, `Cc1cc([C@@H](C)Nc2ccccc2C(=O)O)c2nc(N3CCOCC3)cc(=O)n2c1` [AZD-6482] returned a % of control in experiment [2] of 100%. Turning to `N#Cc1cccc(-c2c[nH]c3ncnc(N4CCOCC4)c23)c1`, the % of inhibition in experiment [3] was -42%. Consider `CC[C@@H]1[C@H](F)C(=O)N[C@@H]1COc1nccc2cc(C(N)=O)c(OC)cc12` [ZIMLOVISERTIB], for which the % of inhibition in experiment [4] (at 0.01 µM) is 11.7%; in experiment [4] (at 0.04 µM), -9.5%; in experiment [4] (at 0.2 µM), -6.6%; in experiment [4] (at 1 µM) it was 4%; in experiment [4] (at 5 µM) it was 0.1%. In experiment [5], `COc1cc(Nc2nc(C)cc(-c3cnn4nc(OC)ccc34)n2)cc(C(F)(F)F)c1` had a % of control of 83%. With `Cc1cc(F)c(C(=O)Nc2cccc(-c3nncn3C(C)C)n2)cc1-n1cnc(C2CC2)c1`, the % of control in experiment [6] turned out to be 57%. In the case of `CCC(=O)N1CCN(c2ccc(-n3c(=O)ccc4cnc5ccc(-c6cnc7ccccc7c6)cc5c43)cc2C(F)(F)F)CC1`, the % of control in experiment [7] came out at 77%.
